Data published in ChEMBL document CHEMBL4118091, “N-Acylbenzenesulfonamide Dihydro-1,3,4-oxadiazole Hybrids: Seeking Selectivity toward Carbonic Anhydrase Isoforms” (ACS Med Chem Lett, 2017).

Columns and labels:
Carbonic anhydrase 9 = Carbonic anhydrase 9 (Homo sapiens, UniProt Q16790); test: Inhibition of recombinant human carbonic anhydrase 9 assessed as reduction in CO2 hydration pretreated for 15 mins followed by CO2 addition measured for 10 to 100 sec by Line-Weaver Burk plot analysis
Carbonic anhydrase 1 = Carbonic anhydrase 1 (Homo sapiens, UniProt P00915); test: Inhibition of recombinant human carbonic anhydrase 1 assessed as reduction in CO2 hydration pretreated for 15 mins followed by CO2 addition measured for 10 to 100 sec by Line-Weaver Burk plot analysis
Carbonic anhydrase 1, sequence (P00915 whole entry): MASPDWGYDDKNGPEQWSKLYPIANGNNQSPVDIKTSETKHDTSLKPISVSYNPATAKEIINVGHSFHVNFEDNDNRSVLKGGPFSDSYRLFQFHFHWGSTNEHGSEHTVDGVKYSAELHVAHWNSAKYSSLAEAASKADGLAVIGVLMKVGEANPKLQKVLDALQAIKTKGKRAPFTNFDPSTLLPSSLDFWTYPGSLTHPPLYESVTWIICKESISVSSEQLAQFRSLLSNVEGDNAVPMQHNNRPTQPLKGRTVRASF

| Structure (SMILES) | Ki (Carbonic anhydrase 9) | Ki (Carbonic anhydrase 1) |
| --- | --- | --- |
| CC(=O)NS(=O)(=O)c1ccc(C2=NN(C(C)=O)C(c3ccc(F)cc3F)O2)cc1 (centres undefined) | 373 nM | – |
| CC(=O)NS(=O)(=O)c1ccc(C2=NN(C(C)=O)C(c3cccc([N+](=O)[O-])c3)O2)cc1 (centres undefined) | 44.3 nM | > 10000 nM |
| COc1ccc(C2OC(c3ccc(S(=O)(=O)NC(C)=O)cc3)=NN2C(C)=O)cc1 (centres undefined) | 143 nM | > 10000 nM |
| COc1ccccc1C1OC(c2ccc(S(=O)(=O)NC(C)=O)cc2)=NN1C(C)=O (centres undefined) | 378 nM | – |
| COc1cccc(C2OC(c3ccc(S(=O)(=O)NC(C)=O)cc3)=NN2C(C)=O)c1 (centres undefined) | 430 nM | – |
| CC(=O)NS(=O)(=O)c1ccc(C2=NN(C(C)=O)C(c3ccc(Cl)cc3)O2)cc1 (centres undefined) | 502 nM | – |
| CC(=O)NS(=O)(=O)c1ccc(C2=NN(C(C)=O)C(c3ccc(C(F)(F)F)cc3)O2)cc1 (centres undefined) | 468 nM | > 10000 nM |
| CC(=O)NS(=O)(=O)c1ccc(C2=NN(C(C)=O)C(c3ccccc3C)O2)cc1 (centres undefined) | 489 nM | – |
| CC(=O)NS(=O)(=O)c1ccc(C2=NN(C(C)=O)C(c3ccc(C)cc3)O2)cc1 (centres undefined) | 502 nM | – |
| CC(=O)NS(=O)(=O)c1ccc(C2=NN(C(C)=O)C(c3ccccc3[N+](=O)[O-])O2)cc1 (centres undefined) | 159 nM | > 10000 nM |

Further compounds by falling Ki (Carbonic anhydrase 9), results first:

| Ki (Carbonic anhydrase 9) | Ki (Carbonic anhydrase 1) | Structure (SMILES) |
| --- | --- | --- |
| 43.6 nM | – | CC(=O)NS(=O)(=O)c1ccc(C2=NN(C(C)=O)C(c3ccc(F)cc3)O2)cc1 (centres undefined) |
| 33.1 nM | – | CC(=O)NS(=O)(=O)c1ccc(C2=NN(C(C)=O)C(c3ccc([N+](=O)[O-])cc3)O2)cc1 (centres undefined) |
| 26.9 nM | – | CC(=O)NS(=O)(=O)c1ccc(C2=NN(C(C)=O)C(c3ccc(Cl)cc3Cl)O2)cc1 (single isomer, unassigned; (+)) |
| 25 nM | – | CC(=O)NS(=O)(=O)c1ccc(C2=NN(C(C)=O)C(c3ccc(Cl)cc3Cl)O2)cc1 (racemic) |
| 24.2 nM | – | CC(=O)NS(=O)(=O)c1ccc(C2=NN(C(C)=O)C(c3ccc(Cl)cc3Cl)O2)cc1 (single isomer, unassigned; (-)) |
